Assays:
[1] = test system: PANMI (wild proso millet); experiment: Pre-emergence herbicidal activity, warm season; type: in vivo, Panicum miliaceum; settings: GR80 = lowest tested rate (300, 100, 30, 10 g/ha) with 80% or greater inhibition; approx. 14 days after treating; 30/21° C.
Outline: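 Each pot received seeds on sterilized fertilized topsoil, a soil cover, and a surface spray of compound (300–10 g/ha, acetone/water 50:50). Plants grew about 14 days at 30/21 °C (PANMI, DIGSA) or 18/13 °C (ALOMY, POLCO) before inhibition was rated against untreated pots to give GR80.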

PANDI (fall panicum) = experiment: Pre-emergence herbicidal activity, warm season; type: in vivo, Panicum dichotomiflorum; settings: GR80 = lowest tested rate (300, 100, 30, 10 g/ha) with 80% or greater inhibition; approx. 14 days after treating; 30/21° C.
Outline: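 Activity is expressed as the rate giving 80% inhibition, with 300, 100, 30 and 10 g/ha typically tested. An asterisk marks activity short of 80% at the top rate. Warm-season grasses were held at 30/21 °C; cool-season blackgrass and wild buckwheat at 18/13 °C; scoring at about 14 days.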

LOLMG (annual ryegrass) = experiment: Post-emergence herbicidal activity, cool season; type: in vivo, Lolium multiflorum; settings: abraded plants sprayed at 300, 100, 30 and 10 g/ha; about 14 days after treatment
Outline: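 Greenhouse-grown seedlings were abraded 9–14 days after planting, then sprayed at 300, 100, 30 and 10 g/ha in acetone:water (3,100 l/ha). Grown at 18/13 °C day/night, percent inhibition versus abraded unsprayed controls was scored about 14 days after treatment and GR80 assigned.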

ABUTH (velvetleaf) = experiment: Pre-plant incorporated (PPI) herbicidal activity, warm season; type: in vivo, Abutilon theophrasti; settings: for inhibition at 10 g/ha / inhibition at 30 g/ha / inhibition at 100 g/ha / inhibition at 300 g/ha / inhibition at 900 g/ha: Abutilon theophrasti, PPI application, read-out: Percent inhibition ABUTH; for PPI activity (GR80) ABUTH: pre-plant incorporated, GR80 = lowest tested rate with 80% or greater inhibition, approx. 14 days after treating, 30/21° C.
Method: (§1) In another set of tests, the pre-plant incorporated (PPI) activity of compounds of this invention was evaluated on the same species as for the pre-emergence tests described above. In the PPI tests the following procedure, designed to simulate PPI application, was used.
(§2) A pre-prepared topsoil mixture (described above) was placed in a pot and compacted to a depth of 1.0 to 1.25 cm from the top of the pot. Seeds of each of several monocotyledonous and dicotyledonous annual plant species were placed on top of the soil. A sufficient quantity of soil to cover the seeds and level fill the pot was weighed into an open container. A known amount of the test compound was dissolved or suspended in an organic solvent and applied by spraying to this cover soil. The cover soil was thoroughly mixed to distribute the test compound throughout the cover soil, and was then applied as a cover layer over the seeds. Untreated soil was used as a cover layer for control pots. After treatment the plants were placed in a greenhouse where they received 0.64 cm of overhead irrigation. All subsequent watering consisted of a light overhead mist and/or subirrigation as needed for germination and growth. Tables 9 and 10 below relate to warm season plant species which were placed after pre-emergence treatment in a greenhouse with a 30/21° C. day/night temperature regime. Tables 11 and 12 below relates to cool season plant species placed after pre-emergence treatment in a greenhouse or growth chamber with an 18/13° C. day/night temperature regime. Only the compounds of Examples 1, 6, 8, 11, 13 and 15-20 were included in PPI tests.
(§3) Approximately 14 days after planting and treating, the plants were observed and herbicidal efficacy recorded as percent inhibition by comparison with untreated plants.

AMARE (redroot pigweed) = experiment: as above; type: in vivo, Amaranthus retroflexus; settings: for inhibition at 10 g/ha / inhibition at 30 g/ha / inhibition at 100 g/ha / inhibition at 300 g/ha / inhibition at 900 g/ha: Amaranthus retroflexus, PPI application, read-out: Percent inhibition AMARE; for PPI activity (GR80) AMARE: pre-plant incorporated, GR80 = lowest tested rate with 80% or greater inhibition, approx. 14 days after treating, 30/21° C.
Method: as §1, §2, §3

BROTE (downy brome) = experiment: Pre-plant incorporated (PPI) herbicidal activity, cool season; type: in vivo, Bromus tectorum; settings: for inhibition at 10 g/ha / inhibition at 30 g/ha / inhibition at 100 g/ha / inhibition at 300 g/ha / inhibition at 900 g/ha: Bromus tectorum, weed, PPI application, read-out: Percent inhibition BROTE; for PPI activity GR80, BROTE: pre-plant incorporated, lowest tested rate with 80% or greater inhibition, about 14 days
Method: as §1, §2, §3

AVEFA (wild oat) = experiment: as above; type: in vivo, Avena fatua; settings: for inhibition at 10 g/ha / inhibition at 30 g/ha / inhibition at 100 g/ha / inhibition at 300 g/ha / inhibition at 900 g/ha: Avena fatua, weed, PPI application, read-out: Percent inhibition AVEFA; for PPI activity GR80, AVEFA: pre-plant incorporated, lowest tested rate with 80% or greater inhibition, about 14 days
Method: as §1, §2, §3

SMILES	Pre-emergence activity (GR80) PANMI [1]	Post-emergence activity GR80, LOLMG (LOLMG (annual ryegrass))	inhibition at 10 g/ha (ABUTH (velvetleaf))	inhibition at 30 g/ha (ABUTH (velvetleaf))	inhibition at 100 g/ha (ABUTH (velvetleaf))	inhibition at 300 g/ha (ABUTH (velvetleaf))	inhibition at 900 g/ha (ABUTH (velvetleaf))	PPI activity (GR80) ABUTH (ABUTH (velvetleaf))	inhibition at 10 g/ha (AMARE (redroot pigweed))	inhibition at 30 g/ha (AMARE (redroot pigweed))	inhibition at 100 g/ha (AMARE (redroot pigweed))	inhibition at 300 g/ha (AMARE (redroot pigweed))	inhibition at 900 g/ha (AMARE (redroot pigweed))	PPI activity (GR80) AMARE (AMARE (redroot pigweed))	inhibition at 10 g/ha (BROTE (downy brome))	inhibition at 30 g/ha (BROTE (downy brome))	inhibition at 100 g/ha (BROTE (downy brome))	inhibition at 300 g/ha (BROTE (downy brome))	inhibition at 900 g/ha (BROTE (downy brome))	PPI activity GR80, BROTE (BROTE (downy brome))	other results
CCN(CC)C(=O)n1cnc(S(=O)(=O)C(F)(F)C(F)(F)SC)n1 [Example 14]	100 g/ha	[empty]																			Pre-emergence activity (GR80) PANDI (PANDI (fall panicum)): 100 g/ha
C=C(C)CC(F)(F)S(=O)(=O)c1ncn(C(=O)N(CC)CC)n1 [Example 18]	30 g/ha	[empty]	0%	0%	0%	70%	90%	100 g/ha	30%	100%	100%	100%	100%	300 g/ha	0%	0%	0%	20%	90%	300 g/ha	inhibition at 10 g/ha (AVEFA (wild oat)): 0%; inhibition at 30 g/ha (AVEFA (wild oat)): 0%; inhibition at 100 g/ha (AVEFA (wild oat)): 10%; inhibition at 300 g/ha (AVEFA (wild oat)): 50%; inhibition at 900 g/ha (AVEFA (wild oat)): 99%; PPI activity GR80, AVEFA (AVEFA (wild oat)): 300 g/ha
C=C(Br)CC(F)(F)S(=O)(=O)c1ncn(C(=O)N(CC)CC)n1 [Example 19]	100 g/ha	[empty]	0%	0%	0%	0%	60%	30 g/ha	0%	20%	95%	95%	100%	100 g/ha	0%	20%	20%	60%	95%	300 g/ha	inhibition at 10 g/ha (AVEFA (wild oat)): 0%; inhibition at 30 g/ha (AVEFA (wild oat)): 0%; inhibition at 100 g/ha (AVEFA (wild oat)): 30%; inhibition at 300 g/ha (AVEFA (wild oat)): 70%; inhibition at 900 g/ha (AVEFA (wild oat)): 60%; PPI activity GR80, AVEFA (AVEFA (wild oat)): 300 g/ha
